Data: BindingDB's records for doi:10.1016/j.bmc.2006.09.055 (University of Cape Town, 2007)

Molecular target: T1, Falcipain 2 (Plasmodium falciparum, UniProt Q9N6S8)
T1 sequence (Q9N6S8 whole entry): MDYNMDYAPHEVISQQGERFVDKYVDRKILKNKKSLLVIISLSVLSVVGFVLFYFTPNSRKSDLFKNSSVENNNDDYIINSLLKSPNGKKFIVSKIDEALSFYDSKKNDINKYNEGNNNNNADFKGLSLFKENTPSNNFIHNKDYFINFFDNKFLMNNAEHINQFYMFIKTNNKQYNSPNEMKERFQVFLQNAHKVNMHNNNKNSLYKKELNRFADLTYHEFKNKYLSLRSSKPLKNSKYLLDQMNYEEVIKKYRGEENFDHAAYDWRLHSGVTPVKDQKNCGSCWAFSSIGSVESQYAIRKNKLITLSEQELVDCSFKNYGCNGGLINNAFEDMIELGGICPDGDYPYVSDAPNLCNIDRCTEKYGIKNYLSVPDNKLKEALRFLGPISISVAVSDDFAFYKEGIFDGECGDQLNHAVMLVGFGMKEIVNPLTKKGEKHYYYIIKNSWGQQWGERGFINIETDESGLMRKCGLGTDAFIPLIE
Experiment: Falcipain-2 Inhibition Assay
Details: pH 5.5; 22 °C
Description: IC50 values against the recombinant falcipain-2 were determined by incubating protein with different concentrations of inhibitors in reaction buffer after addition of the substrate. Fluorescence was continuously monitored for 30 min at room temperature in a Labsystems Fluoroscan Ascent spectrofluorometer. IC50 values were determined from plots of activity over inhibitor concentration with GraphPad Prism software.

NC(=S)NN=Cc1ccc(O)cc1O [2,4-dihydroxybenzaldehyde thiosemicarbazone]
IC50: > 20 µM
